The results in this text go back to patent US20120214847A1, “2-[1-PHENYL-5-HYDROXY-4a-SUBSTITUTED-HEXAHYDROCYCLOPENTA[F]INDAZOL-5-YL]ETHYL PHENYL DERIVATIVES AS GLUCOCORTICOID RECEPTOR LIGANDS” (Merck Sharp & Dohme Corp., priority 2009, published 2012).

The structures appear in SMILES notation.

This experiment addresses T1, glucocorticoid receptor (Homo sapiens, UniProt P04150).
T1 construct: endogenous in cells; host or cells: HeLa (ATCC) cell lysate supernatant
T1 sequence (P04150 1-777): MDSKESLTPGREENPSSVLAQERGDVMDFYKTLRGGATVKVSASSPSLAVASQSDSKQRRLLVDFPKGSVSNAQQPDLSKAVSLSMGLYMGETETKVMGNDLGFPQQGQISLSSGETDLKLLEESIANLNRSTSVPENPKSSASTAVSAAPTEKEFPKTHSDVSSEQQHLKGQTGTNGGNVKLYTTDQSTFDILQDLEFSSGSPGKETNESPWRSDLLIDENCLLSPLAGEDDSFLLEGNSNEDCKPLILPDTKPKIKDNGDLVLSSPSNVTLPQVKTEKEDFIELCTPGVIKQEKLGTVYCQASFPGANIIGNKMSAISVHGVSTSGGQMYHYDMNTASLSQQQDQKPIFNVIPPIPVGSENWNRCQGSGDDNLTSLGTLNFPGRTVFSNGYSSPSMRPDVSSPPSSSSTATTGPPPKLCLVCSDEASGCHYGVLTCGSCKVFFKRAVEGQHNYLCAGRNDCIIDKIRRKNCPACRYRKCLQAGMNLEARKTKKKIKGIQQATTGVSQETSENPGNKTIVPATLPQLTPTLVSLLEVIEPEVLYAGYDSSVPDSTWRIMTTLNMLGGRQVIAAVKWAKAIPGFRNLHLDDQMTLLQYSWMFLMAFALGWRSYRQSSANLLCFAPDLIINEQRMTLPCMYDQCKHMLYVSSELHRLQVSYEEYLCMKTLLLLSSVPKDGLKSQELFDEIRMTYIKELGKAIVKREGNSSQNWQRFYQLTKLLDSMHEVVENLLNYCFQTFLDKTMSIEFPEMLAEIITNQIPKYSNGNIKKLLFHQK
As to the kind of experiment: Ligand binding assay (GRBind), 3H-dexamethasone displacement in HeLa cell lysate. As to conditions: 3H-DEX tracer. On the procedure:
Binding Buffer: TEGM (10 mM Tris-HCl, 1 mM EDTA, 10% glycerol, 1 mM betamecaptoethanol, 10 mM Sodium Molybdate, pH 7.2)
50% HAP Slurry: Calbiochem Hydroxylapatite, Fast Flow, in 10 mM Tris, pH 8.0 and 1 mM EDTA.
Wash Buffer: 40 mM Tris, pH7.5, 100 mM KCl, 1 mM EDTA and 1 mM EGTA. 95% EtOH Dexmethasone-methyl-3H, (DEXA*); (Amersham cat#TRK645) Dexamethasone(DEX) (Sigma, cat#01756):
Hydroxylapatite Fast Flow; Calbiochem Cat#391947
25 Molybdate=Molybdic Acid (Sigma, M1651)
5 Cells (Hall R. E., et al., European Journal of Cancer, 30A: 484-490 (1994)) HeLa (ATCC) cultured in RPMI 1640 (Gibed 11835-055) containing 20 mM Hepes, 4 mM L-glu, 10 ug/ml of human insulin (Sigma, 1-0259), 10% FBS and 20 uglml of Gentamicin (Gibco#15710072) are rinsed twice in PBS. Phenol red-free Trypsin-EDTA is diluted in the same PBS 1:10. The cell layers are rinsed with IX Trypsin, extra Trypsin is poured out, and the cell layers are incubated at 37° C. for 2 min. The flask is tapped and checked for signs of cell detachment. Once the cells begin to slide off the flask, the complete media is added. The cells are counted at this point, then diluted to the appropriate concentration and split into flasks or dishes for further culturing (Usually 1:3 to 1:6 dilution).
Preparation of HeLa Cell Lysate
When the cells are 70 to 85% confluent, they are detached as described above, and collected by centrifuging at 1000 g for 10 min at 4° C. The cell pellet is washed twice with TEGM (10 mM Tris-HCl, 1 mM EDTA, 10% glycerol, 1 mM beta-mercaptoethanol, 10 mM Sodium Molybdate, pH 7.2). After the final wash, the cells are resuspended in TEGM at a concentration of 10^7 cells/mL. The cell suspension is snap frozen in liquid nitrogen or ethanol/dry ice bath and transferred to −80° C. freezer on dry ice. Before setting up the binding assay, the frozen samples are left on ice-water to just thaw. Then the samples are centrifuged at 12,500 g to 20,000 g for 30 min at 4° C. The supernatant is used to set-up assay right away. If using 50 μL of supernatant, the test compound can be prepared in 50 μL of the TEGM buffer.
Procedure for Multiple Compound Screening
1×TEGM buffer is prepared, and the isotope-containing assay mixture is prepared in the following order: EtOH (2% final concentration in reaction), 3H-DEX (Amersham Biosciences) and 1×TEGM. [e.g. For 100 samples, 200 JlL (100×2) of EtOH+4.25 JlL of 1:10 ^3H-Dex stock+2300 μL (100×23) 1×TEGM]. The compound is serially diluted, e.g., if starting final conc. is 1 μM, and the compound is in 25 μL of solution, for duplicate samples, 75 μL of 4×1 μM solution is made and 3 μL of 100). 1M is added to 72 μL of buffer, and 1:5 serial dilution.
25 μL of ^3H-DEX (6 nM) trace and 25 μL, compound solution are first mixed together, followed by addition of 50 μL receptor solution. The reaction is gently mixed, spun briefly at about 200 rpm and incubated at 4° C. overnight. 100 μL of 50% HAP slurry is prepared and added to the incubated reaction which is then vortexed and incubated on ice for 5 to 10 min. The reaction mixture is vortexed twice more to resuspend HAP while incubating reaction. The samples in 96-well format are then washed in wash buffer using the FilterMate™ Universal Harvester plate washer (Packard). The washing process transfers HAP pellet containing ligand-bound expressed receptor to Unifilter-96 GFIB filter plate (Packard). The HAP pellet on the filter plate is incubated with […] of MICROSCINT (Packard) scintillant for 30 min before being counted on the TopCount microscintillation counter (Packard). IC50s are calculated using DEX as a reference.
Broadly, the Ki is the equilibrium dissociation constant of an inhibitor or competing ligand from its target. High values mean lower affinity, low ones higher affinity. In turn, `CC[C@]12Cc3cnn(-c4ccc(F)cc4)c3C=C1CC[C@@]2(O)CCc1ccccc1C(O)C(N)=O` (stereo partly drawn) [Example 26, 2-(2-{2-[(4aS,5R)-4a-Ethyl-1-(4-fluorophenyl)-5-hydroxy-1,4,4a,5,6,7-hexahydrocyclopenta[f]indazol-5-yl]ethyl}phenyl)-2-hydroxyacetamide] displayed a Ki of 3.82 nM.
Under `CC[C@]12Cc3cnn(-c4ccc(F)cc4)c3C=C1CC[C@@]2(O)CCc1ncccc1C(N)=O` [Example 52, 2-{2-[(4aS,5R)-4a-Ethyl-1-(4-fluorophenyl)-5-hydroxy-1,4,4a,5,6,7-hexahydrocyclopenta[f]indazol-5-yl]ethyl}pyridine-3-carboxamide] stands 9.83 nM; under `CS(=O)(=O)c1ccccc1CC[C@]1(O)CCC2=Cc3c(cnn3-c3ccc(F)cc3)C[C@@]21C1CC1` [Example 58, (4aR,5R)-4a-Cyclopropyl-1-(4-fluorophenyl)-5-{2-[2-(methylsulfonyl)phenyl]ethyl}-1,4,4a,5,6,7-hexahydrocyclopenta[f]indazol-5-ol], 0.88 nM.
Under `CC[C@]12Cc3cnn(-c4cccc(F)c4)c3C=C1CC[C@@]2(O)CCc1ccccc1C(N)=O` [Example 11, 2-{2-[(4aS,5R)-4a-Ethyl-1-(3-fluorophenyl)-5-hydroxy-1,4,4a,5,6,7-hexahydrocyclopenta[f]indazol-5-yl]ethyl}benzamide] stands 3.22 nM.
Under `NC(=O)c1cccnc1CC[C@]1(O)CCC2=Cc3c(cnn3-c3ccc(F)cc3)C[C@@]21C1CC1` [Example 1, 2-{2-[(4aR,5R)-4a-Cyclopropyl-1-(4-fluorophenyl)-5-hydroxy-1,4,4a,5,6,7-hexahydrocyclopenta[f]indazol-5-yl]ethyl}pyridine-3-carboxamide] stands 4.51 nM.
Regarding `N#Cc1ccccc1CC[C@]1(O)CCC2=Cc3c(cnn3-c3cccnc3)C[C@@]21C1CC1` [Example 30, 2-{2-[(4aR,5R)-4a-Cyclopropyl-5-hydroxy-1-(pyridin-3-yl)-1,4,4a,5,6,7-hexahydrocyclopenta[f]indazol-5-yl]ethyl}benzonitrile], the Ki came to 1.36 nM.
Under `O=S(=O)(c1ccccc1CC[C@]1(O)CCC2=Cc3c(cnn3-c3ccc(F)cc3)C[C@@]21C1CC1)C1CC1` [Example 63, (4aR,5R)-4a-Cyclopropyl-5-{2-[2-(cyclopropylsulfonyl)phenyl]ethyl}-1-(4-fluorophenyl)-1,4,4a,5,6,7-hexahydrocyclopenta[f]indazol-5-ol] stands 1.69 nM; under `CC(C)(CO)NC(=O)c1ccccc1CC[C@]1(O)CCC2=Cc3c(cnn3-c3ccc(F)cc3)C[C@@]21C1CC1` [Example 45, 2-{2-[(4aR,5R)-4a-Cyclopropyl-1-(4-fluorophenyl)-5-hydroxy-1,4,4a,5,6,7-hexahydrocyclopenta[f]indazol-5-yl]ethyl}-N-(1-hydroxy-2-methylpropan-2-yl)benzamide], 2.09 nM; under `CC[C@]12Cc3cnn(-c4ccccc4)c3C=C1CC[C@@]2(O)CC(O)c1cc(C#N)ccn1` (stereo partly drawn) [Example 75, 2-{2-[(4aS,5R)-4a-Ethyl-5-hydroxy-1-phenyl-1,4,4a,5,6,7-hexahydrocyclopenta[f]indazol-5-yl]-1-hydroxyethyl}pyridine-4-carbonitrile], 2.97 nM.
Under `NC(=O)C(O)c1ccccc1CC[C@]1(O)CCC2=Cc3c(cnn3-c3ccc(F)cc3)C[C@@]21C1CC1` (single isomer, unassigned) [Example 3b] stands 1.79 nM.
Under `CC[C@]12Cc3cnn(-c4ccc(F)cc4)c3C=C1CC[C@@]2(O)CCc1cncc(F)c1` [Example 21, (4aS,5R)-4a-Ethyl-1-(4-fluorophenyl)-5-[2-(5-fluoropyridin-3-yl)ethyl]-1,4,4a,5,6,7-hexahydrocyclopenta[f]indazol-5-ol] stands 1.04 nM.
`CC[C@]12Cc3cnn(-c4ccc(F)cc4)c3C=C1CC[C@@]2(O)CCc1ccc(F)cn1` [Example 19, (4aS,5R)-4a-Ethyl-1-(4-fluorophenyl)-5-[2-(5-fluoropyridin-2-yl)ethyl]-1,4,4a,5,6,7-hexahydrocyclopenta[f]indazol-5-ol] came in with a Ki of 2.52 nM.
Take `Cc1ccnc(CC[C@]2(O)CCC3=Cc4c(cnn4-c4ccc(F)cc4)C[C@@]32C2CC2)c1` [Example 36, (4aR,5R)-4a-Cyclopropyl-1-(4-fluorophenyl)-5-[2-(4-methylpyridin-2-yl)ethyl]-1,4,4a,5,6,7-hexahydrocyclopenta[f]indazol-5-ol]: the Ki was 1.63 nM.
With `CC[C@]12Cc3cnn(-c4ccc(F)cc4)c3C=C1CC[C@@]2(O)CC(O)c1ccc(F)cn1` (single isomer, unassigned) [Example 69b] the figure was 2.91 nM; with `O=C(NC1(CO)CC1)c1ccccc1CC[C@]1(O)CCC2=Cc3c(cnn3-c3ccc(F)cc3)C[C@@]21C1CC1` [Example 46, 2-{2-[(4aR,5R)-4a-Cyclopropyl-1-(4-fluorophenyl)-5-hydroxy-1,4,4a,5,6,7-hexahydrocyclopenta[f]indazol-5-yl]ethyl}-N-[1-(hydroxymethyl)cyclopropyl]benzamide], 1.99 nM; with `CC[C@]12Cc3cnn(-c4ccc(F)cc4)c3C=C1CC[C@@]2(O)CC(O)c1c(F)ccnc1Cl` (stereo partly drawn) [Example 74, (4aS,5R)-5-[2-(2-Chloro-4-fluoropyridin-3-yl)-2-hydroxyethyl]-4a-ethyl-1-(4-fluorophenyl)-1,4,4a,5,6,7-hexahydrocyclopenta[f]indazol-5-ol], 9.35 nM.
Under `CC(C)(CO)NC(=O)c1cc(F)cnc1CC[C@]1(O)CCC2=Cc3c(cnn3-c3ccc(F)cc3)C[C@@]21C1CC1` [Example 48, 2-{2-[(4aR,5R)-4a-Cyclopropyl-1-(4-fluorophenyl)-5-hydroxy-1,4,4a,5,6,7-hexahydrocyclopenta[f]indazol-5-yl]ethyl}-5-fluoro-N-(1-hydroxy-2-methylpropan-2-yl)pyridine-3-carboxamide] stands 3.55 nM; under `N#Cc1ccccc1CC[C@]1(O)CCC2=Cc3c(cnn3-c3ccccc3)C[C@@]21C1CC1` [Example 27, 2-{2-[(4aR,5R)-4a-Cyclopropyl-5-hydroxy-1-phenyl-1,4,4a,5,6,7-hexahydrocyclopenta[f]indazol-5-yl]ethyl}benzonitrile], 1 nM.
